{"source": "patent US20200164026A1", "about": "“Intranasal Delivery of Cell Permeant Therapeutics” (The Trustees of Columbia University in the City of New York, priority 2010, published 2020)", "key": {"rats subjected to tMCAo": {"tested_on": "rats subjected to tMCAo", "test": "24-point neurofunctional scale after 2 hr tMCAo, monitored for 21 days", "format": "in vivo, rat", "protocol": "The efficacy of Pent-XBIR3 to prevent sensory-motor disability caused by stroke was tested by giving rats either a prophylatic (pre-occlusion) or therapeutic (4 hours post reperfusion) intranasal bolus of vehicle or Pent-XBIR3 (prepared and administerd as described in section 6.8, below). Rodents were assayed with a 24-point neurofunctional scale starting at 1 day post-ischemia with testing every other day for 3 weeks after the ischemic event.\nIntranasal Delivery of Pen1-XBIR3. While under isofluorane anesthesia and lying on their backs, Pen1-XBIR3 (36.8 μM) was delivered to rats by administering 6 μl drops to alternating nares every two minutes for 20 minutes (60 μl total delivered). (Thorne, et al., Neuroscience 127 (2), 481-496 (2004)). Intranasal treatment was done prior to induction of stroke. Saline was used as a negative control. Brains were harvested for immunohistochemistry or western blotting."}, "[1]": {"tested_on": "cleaved caspase-6 (c1-C6) and caspase-9", "test": "Pen1-XBIR3 delivered to the striatum (CED/ICC) prior to tMCAo; immunostaining for c1-C6 and caspase-9", "format": "in vivo, rat", "settings": "delivered to striatum 1 hr prior to tMCAo, 24 hpr", "description": "(Davidson, et al., J Neurosci 24 (45), 10040-10046 (2004)). Upon entry into the cell the disulfide linkage is broken by the reducing environment of the cytoplasm, releasing the peptide cargo and allowing it to act at its target. Functional efficacy of this construct was confirmed using hippocampal neuronal cultures that were subjected to 4-hydroxynonenal (HNE) mediated death, a caspase-9 dependent death. (Rabacchi, et al., Neurobiol Aging 25 (8), 1057-1066 (2004)). […] To ensure that a Pen1-peptide could be delivered to the brain, Pen1 was linked to a FITC-labeled control peptide and delivered to the striatum using convection enhanced delivery (CED). Brains were harvested 24 hr after delivery, sectioned, and imaged. […] Pent-XBIR3 was delivered to the striatum 1 hr prior to tMCAo using ICC. Animals were harvested at 24 hpr and immunostained for caspase-9 and c1-C6. […]\nPen1-XBIR3. […] Linkage was assessed by 20% SDS-PAGE and western blotting with anti-His antibody. […]\nImmunohistochemistry (IHC), Cell Process Quantification, and Statistical Analysis. […] Quantification of neurons and axons was accomplished using the Cell Counter plug-in for ImageJ (NIH). For quantification in the rat brain, 20x magnification images were acquired from the dorsal motor cortex and the […] somatosensory cortex forelimb region; both regions are contained are within the infarct penumbra (FIG. 1A). […]"}, "[2]": {"tested_on": "hippocampal neuronal cultures", "test": "Neuronal survival assay, 4-hydroxynonenal (HNE) mediated death", "format": "cell-based, rat", "settings": "HNE 3 μM, Pen1-XBIR3 80 nM, 1 day", "description": "(Davidson, et al., J Neurosci 24 (45), 10040-10046 (2004)). Upon entry into the cell the disulfide linkage is broken by the reducing environment of the cytoplasm, releasing the peptide cargo and allowing it to act at its target. Functional efficacy of this construct was confirmed using hippocampal neuronal cultures that were subjected to 4-hydroxynonenal (HNE) mediated death, a caspase-9 dependent death. (Rabacchi, et al., Neurobiol Aging 25 (8), 1057-1066 (2004)). […] To ensure that a Pen1-peptide could be delivered to the brain, Pen1 was linked to a FITC-labeled control peptide and delivered to the striatum using convection enhanced delivery (CED). Brains were harvested 24 hr after delivery, sectioned, and imaged. […] Pent-XBIR3 was delivered to the striatum 1 hr prior to tMCAo using ICC. Animals were harvested at 24 hpr and immunostained for caspase-9 and c1-C6. […] Thus, caspase-9 activity was necessary for activation of caspase-6 in neuron soma and processes following a transient ischemic event in rats.\nRat Hippocampal cultures. […]\nNeuronal survival assay. […] After 1 day of treatment cells number was quantified as previously described. […] Briefly, the cells were lysed in counting buffer and intact nuclei were counted using a hemocytometer. […]"}}, "data": [{"substance": "Pen1-XBIR3: BIR3 domain from XIAP, a specific caspase-9 inhibitor, disulfide-linked to Penetratin1 cell transduction peptide (SEQ ID NO: 10)", "values": [{"measurement": "neurofunctional score (stroke related disability)", "setting": "rats subjected to tMCAo; prophylactic (pre-occlusion) intranasal bolus", "value": "less stroke related disability"}, {"measurement": "neurofunctional score (stroke related disability)", "setting": "rats subjected to tMCAo; therapeutic (4 hours post reperfusion) intranasal bolus", "value": "functional recovery up to 21 d"}, {"measurement": "neurofunctional score (stroke related disability)", "setting": "rats subjected to tMCAo; therapeutic (4 hours post reperfusion) intranasal bolus, listed as Pent-XBIR3", "value": "less stroke related disability"}, {"measurement": "caspase-9 and c1-C6 immunostaining in neuronal soma and processes", "setting": "[1]", "value": "blocks the increase in caspase-9 and the induction of c1-C6"}, {"measurement": "caspase-9 and c1-C6 immunostaining in neuronal soma and processes", "setting": "[1]; listed as Pent-XBIR3", "value": "inhibited appearance of c1-C6 and caspase-9"}, {"measurement": "neuronal death / survival", "setting": "[2]", "value": "abrogated death"}]}]}
